In publication PMC6934184, “Selective DNA-PKcs inhibition extends the therapeutic index of localized radiotherapy and chemotherapy” (The Journal of Clinical Investigation, 2019):

Biological target: T1, PI4KB (PI4K beta) (Homo sapiens, UniProt Q9UBF8)
T1 construct: purchased Thermo Fisher Scientific (Life Technologies) SelectScreen
Experiment: SelectScreen Adapta
Type: biochemical
Summary of the method: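 Percent values come from Thermo SelectScreen profiling of NU5455, combining activity and binding assays. CSF1R was run in Z'LYTE format at Km app ATP, and CAMK1 in Adapta format with ATP listed at 10.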

T1 sequence (Q9UBF8 whole entry): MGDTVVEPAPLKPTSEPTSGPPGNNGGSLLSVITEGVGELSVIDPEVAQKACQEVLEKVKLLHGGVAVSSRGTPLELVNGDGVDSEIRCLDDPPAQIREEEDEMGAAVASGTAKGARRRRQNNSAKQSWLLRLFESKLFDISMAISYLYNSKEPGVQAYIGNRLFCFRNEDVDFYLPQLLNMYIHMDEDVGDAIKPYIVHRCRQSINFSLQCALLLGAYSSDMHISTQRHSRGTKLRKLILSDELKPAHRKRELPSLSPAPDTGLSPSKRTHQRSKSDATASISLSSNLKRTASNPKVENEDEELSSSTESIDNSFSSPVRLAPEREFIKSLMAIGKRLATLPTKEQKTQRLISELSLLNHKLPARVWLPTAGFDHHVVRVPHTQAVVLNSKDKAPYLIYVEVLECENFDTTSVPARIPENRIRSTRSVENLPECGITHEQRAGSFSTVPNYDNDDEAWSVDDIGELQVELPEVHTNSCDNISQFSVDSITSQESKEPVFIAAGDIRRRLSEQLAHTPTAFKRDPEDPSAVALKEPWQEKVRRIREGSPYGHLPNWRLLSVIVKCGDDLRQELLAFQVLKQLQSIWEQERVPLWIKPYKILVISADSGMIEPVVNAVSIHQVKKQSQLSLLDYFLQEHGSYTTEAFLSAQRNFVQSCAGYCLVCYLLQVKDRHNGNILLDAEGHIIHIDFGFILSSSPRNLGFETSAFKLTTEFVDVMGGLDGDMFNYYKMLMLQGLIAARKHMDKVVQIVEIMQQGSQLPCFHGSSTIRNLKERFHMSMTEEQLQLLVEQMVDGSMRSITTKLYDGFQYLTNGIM

CN(C(=O)CN1CCOCC1)c1ccc2sc3c(-c4cccc5c(=O)cc(N6CC7CCC(C6)O7)oc45)cccc3c2c1 [NU5455]
inhibition at 1 µM: -4.7%
